Reference: patent US11738087B2, “Lymph directing prodrugs” (Monash University, priority 2015, dated 2023)

Experiments:
lipoprotein lipase (LPL) = test: In vitro release of MPA from prodrugs in rat lymph supplemented with lipoprotein lipase; type: in vitro ADME; conditions: LPL 200 unit/ml, 37° C., n=1; FIG. 10
Procedure: In order to probe the release of free MPA from TG prodrugs in the lymphatics (the active site of MPA is in lymphocytes that are enriched in the lymphatic system), MPA prodrugs were incubated with rat lymph supplemented with lipoprotein lipase (LPL, 200 unit/ml). LPL is a key enzyme required for the hydrolysis of lipoprotein associated TG in normal physiological conditions and is therefore expected to be a key contributor to lipolysis of the re-esterified Drug-TG construct in plasma, largely via liberation of FAs in the sn-1 and the sn-3 position of the TG-mimetic, prior to drug release from the 2′ positon via esterase hydrolysis. LPL is tethered to lymphocytes or lymphatic/vascular endothelial cells under physiological conditions. In the current in vitro studies, rat lymph was therefore supplemented with LPL to better reflect the in vivo situation. To start hydrolysis, 10 μl of LPL solution (10,000 unit/ml) was added to a mixture of 10 μl of prodrug solution (1 mg/ml dissolved in acetonitrile) and 500 μl of blank Sprague Dawley rat lymph. The solution was incubated at 37° C. Samples (20 μl) of the incubation solution were taken at 0, 5, 10, 15, 30, 60, 90, 120 and 180 minutes post incubation and added to 980 μl of 9:1 (v/v) ACN-water to stop lipolysis. […] The supernatant was analysed by HPLC-MS/MS for MPA concentrations.

[1] = Lymphatic transport studies in rats (mesenteric lymph duct cannulated, intraduodenal infusion); conditions: for Transport of total TST derivatives in lymph (% of dose): intraduodenal infusion, anaesthetised, mesenteric lymph-duct cannulated female SD rats, mean ± SEM (n≥3) or mean ± range (n=2); for Fold increase (compared with control group dosed with TU): lymphatic transport, testosterone series, female SD rats
[2] = Pharmacokinetic (PK) studies in rats after oral gavage (plasma free parent drug); conditions: for AUC0-24 h fold increase compared with TU group: plasma testosterone exposure; for Tmax / AUC0-24 h: plasma testosterone, mean ± SEM; for AUC0-24 h: normalized to 2 mg/kg equivalent testosterone dose; for Cmax: read-out: Cmax (nmol/L), plasma testosterone, conscious carotid artery cannulated SD female rats, normalized to 2 mg/kg equivalent testosterone dose, mean ± SEM
[3] = system: porcine pancreatic lipase; test: In vitro hydrolysis of compounds by porcine pancreatic lipase (stability of monoglyceride forms); type: in vitro ADME; conditions: simulated intestinal micellar solution, pH 6.5, 37° C., up to 180 minutes; FIG. 9
Procedure: In vitro hydrolysis of testosterone prodrugs was performed via incubation with porcine pancreatic lipase. Briefly, pancreatic lipase solution was prepared prior to the hydrolysis experiment by dispersion of 1 g porcine pancreatin in 5 ml of lipolysis buffer. The suspension was mixed well and centrifuged at 3500 rpm for 15 minutes at 5° C. to provide a supernatant. An amount of 1000 ml of lipolysis buffer was prepared with 0.474 g of tris-maleate (2 mM), 0.206 g of CaCl2·H2O (1.4 mM) and 8.775 g of NaCl (150 mM) adjusted with NaOH to pH 6.5. To assess the potential for prodrug hydrolysis in the intestine, 20 μl of prodrug solution (1 mg/ml dissolved in acetonitrile), 900 μl of simulated intestinal micellar solution [prepared with 0.783 g of NaTDC (3 mM) and 0.291 g of phosphatidyl choline (0.75 mM) in 500 ml lipolysis buffer] and 100 μl of enzyme solution were incubated at 37° C. […] The supernatant was analysed by HPLC-MS for residual compound concentrations, and the potential products of compound hydrolysis were analysed.
On incubation with digestive enzymes, the monoglycerides forms of the prodrugs are formed very rapidly. The stability in simulated intestinal conditions is therefore better assessed by the stability of the monoglycerides form that is generated by the initial digestion process. […]

[4] = 'is thought to be'; cited from earlier work

Compound | Release of MPA on incubation with LPL supplemented rat lymph (lipoprotein lipase (LPL)) | Transport of total TST derivatives in lymph (% of dose) [1] | AUC0-24 h fold increase compared with TU group ([2]; SD female rats) | Tmax ([2]; SD female rats) | AUC0-24 h ([2]; SD female rats) | Cmax [2] | Fold increase (compared with control group dosed with TU) [1] | Stability of the monoglyceride form during in vitro incubation with porcine pancreatic lipase [3] | also measured
CCCCCCCCCCCCCCCC(=O)OCC(COC(=O)CCCCCCCCCCCCCCC)OC(=O)CC(C)CC(=O)OC(C)OC(=O)CC/C(C)=C/Cc1c(O)c2c(c(C)c1OC)COC2=O (stereo not shown) [Compound 11, (E)-1-(1,3-Bis(palmitoyloxy)propan-2-yl) 5-(1-((6-(4-hydroxy-6-methoxy-7-methyl-3-oxo-1,3-dihydroisobenzofuran-5-yl)-4-methylhex-4-enoyl)oxy)ethyl) 3-methylpentanedioate] | very rapid |  |  |  |  |  |  |  | 
C[C@]12CC[C@H]3[C@@H](CCC4=CC(=O)CC[C@@]43C)[C@@H]1CC[C@@H]2O [Testosterone, testosterone] |  | Below LOQ* |  |  |  |  |  |  | 
1-(1,3-Bis(palmitoyloxy)propan-2-yl) 4-((((8R,9S,10R,13S,14S,17S)-10,13-dimethyl-3-oxo-2,3,6,7,8,9,10,11,12,13,14,15,16,17-tetradecahydro-1H-cyclopenta[a]phen-anthren-17-yl)oxy)methyl) 2/3-methylsuccinate [Compounds 13/14] |  | 8.0 ± 2.5 % of dose | 94.6 | 1.4 ± 0.1 h | 0.6453 ± 0.1449 µM·h | 568 ± 155 nmol/L | 4.2 | much more stable | Systemic exposure of testosterone, fold higher than Compound 12 ([2]; SD female rats): ~13 fold
CCCCCCCCCCCCCCCC(=O)OCC(COC(=O)CCCCCCCCCCCCCCC)OC(=O)CC(C)CC(=O)OCOC(=O)CC/C(C)=C/Cc1c(O)c2c(c(C)c1OC)COC2=O (stereo not shown) [Compound 10, (E)-1-(1,3-Bis(palmitoyloxy)propan-2-yl) 5-(((6-(4-hydroxy-6-methoxy-7-methyl-3-oxo-1,3-dihydroisobenzofuran-5-yl)-4-methylhex-4-enoyl)oxy)methyl) 3-methyl-pentanedioate] | very rapid |  |  |  |  |  |  |  | 
CCCCCCCCCCC(=O)O[C@H]1CC[C@H]2[C@@H]3CCC4=CC(=O)CC[C@]4(C)[C@H]3CC[C@]12C [TU, testosterone undecanoate, reference compound] |  | 1.9 ± 0.3 % of dose | 1.0 | 1.5 ± 0.0 h | 0.0068 ± 0.0004 µM·h | 5.6 ± 0.5 nmol/L | 1.0 |  | Bioavailability of testosterone after oral administration of the undecanoate ester [4]: < 5%
CCCCCCCCCCCCCCCC(=O)OCC(COC(=O)CCCCCCCCCCCCCCC)OC(=O)CCC(=O)OCO[C@H]1CC[C@H]2[C@@H]3CCC4=CC(=O)CC[C@]4(C)[C@H]3CC[C@]12C [Compound 12, 1,3-Bis(palmitoyloxy)propan-2-yl ((((8R,9S,10R,13S,14S,17S)-10,13-dimethyl-3-oxo-2,3,6,7,8,9,10,11,12,13,14,15,16,17-tetradecahydro-1H-cyclopenta[a]phenanthren-17-yl)oxy)methyl) succinate] |  |  |  |  |  |  |  | labile | 
